From ChEMBL document CHEMBL3991601, “The target landscape of clinical kinase drugs” (Science, 2017)
The source made the active and inactive calls.

Tests used:
[1] = molecular target: Bone morphogenetic protein receptor type-1A (Homo sapiens, UniProt P36894)
[2] = molecular target: Cyclin-dependent kinase 1 (Homo sapiens, UniProt P06493)
[3] = molecular target: Casein kinase I isoform alpha (Homo sapiens, UniProt P48729)
[4] = molecular target: DnaJ homolog subfamily A member 1 (Homo sapiens, UniProt P31689)
Chain of DnaJ homolog subfamily A member 1 (P31689 whole entry): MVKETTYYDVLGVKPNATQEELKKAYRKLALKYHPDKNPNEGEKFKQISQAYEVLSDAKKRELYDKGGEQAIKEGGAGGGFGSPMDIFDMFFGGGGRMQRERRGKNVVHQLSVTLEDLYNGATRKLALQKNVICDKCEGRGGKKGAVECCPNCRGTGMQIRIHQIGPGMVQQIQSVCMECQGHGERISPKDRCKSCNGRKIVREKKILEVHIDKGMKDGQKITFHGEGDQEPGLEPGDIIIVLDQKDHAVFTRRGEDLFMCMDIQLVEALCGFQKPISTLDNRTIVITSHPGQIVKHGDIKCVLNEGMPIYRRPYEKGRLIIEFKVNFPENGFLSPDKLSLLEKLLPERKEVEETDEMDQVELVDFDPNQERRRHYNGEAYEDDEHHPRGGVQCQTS

Ephrin type-A receptor 7 = Ephrin type-A receptor 7 (Homo sapiens, UniProt Q15375)
[5] = molecular target: T1, Serine/threonine-protein kinase LATS1 (Homo sapiens, UniProt O95835)
T1 sequence (O95835 whole entry): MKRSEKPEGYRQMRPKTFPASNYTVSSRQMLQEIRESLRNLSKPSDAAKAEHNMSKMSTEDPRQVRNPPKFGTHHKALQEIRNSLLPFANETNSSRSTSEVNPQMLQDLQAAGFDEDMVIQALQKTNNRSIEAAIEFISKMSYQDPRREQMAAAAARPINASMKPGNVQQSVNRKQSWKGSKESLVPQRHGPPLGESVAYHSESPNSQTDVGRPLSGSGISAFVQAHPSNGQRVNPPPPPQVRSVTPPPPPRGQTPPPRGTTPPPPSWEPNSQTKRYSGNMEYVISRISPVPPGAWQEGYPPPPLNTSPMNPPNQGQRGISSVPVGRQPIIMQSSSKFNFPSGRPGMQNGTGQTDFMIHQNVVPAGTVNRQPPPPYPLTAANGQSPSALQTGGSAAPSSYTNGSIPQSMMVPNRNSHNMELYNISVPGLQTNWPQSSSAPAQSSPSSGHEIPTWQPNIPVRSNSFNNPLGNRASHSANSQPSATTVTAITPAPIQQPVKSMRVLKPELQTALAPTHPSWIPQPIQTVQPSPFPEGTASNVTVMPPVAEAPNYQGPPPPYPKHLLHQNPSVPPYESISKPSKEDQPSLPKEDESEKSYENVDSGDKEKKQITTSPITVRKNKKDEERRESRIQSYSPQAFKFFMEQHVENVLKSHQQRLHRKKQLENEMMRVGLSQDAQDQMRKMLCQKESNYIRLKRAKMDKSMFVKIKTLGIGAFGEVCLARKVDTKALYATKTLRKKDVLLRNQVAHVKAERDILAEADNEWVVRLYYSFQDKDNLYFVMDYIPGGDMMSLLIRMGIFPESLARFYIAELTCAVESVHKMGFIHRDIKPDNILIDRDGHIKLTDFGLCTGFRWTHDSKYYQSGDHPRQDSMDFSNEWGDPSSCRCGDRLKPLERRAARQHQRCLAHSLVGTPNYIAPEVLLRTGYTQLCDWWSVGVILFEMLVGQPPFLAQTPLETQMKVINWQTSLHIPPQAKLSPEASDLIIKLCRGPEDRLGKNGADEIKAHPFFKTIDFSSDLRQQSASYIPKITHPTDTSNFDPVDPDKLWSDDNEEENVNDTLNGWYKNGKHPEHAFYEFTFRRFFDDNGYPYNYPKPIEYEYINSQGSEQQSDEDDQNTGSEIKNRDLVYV

[6] = molecular target: Hepatocyte growth factor receptor (Homo sapiens, UniProt P08581)
Chain of Hepatocyte growth factor receptor (P08581 whole entry): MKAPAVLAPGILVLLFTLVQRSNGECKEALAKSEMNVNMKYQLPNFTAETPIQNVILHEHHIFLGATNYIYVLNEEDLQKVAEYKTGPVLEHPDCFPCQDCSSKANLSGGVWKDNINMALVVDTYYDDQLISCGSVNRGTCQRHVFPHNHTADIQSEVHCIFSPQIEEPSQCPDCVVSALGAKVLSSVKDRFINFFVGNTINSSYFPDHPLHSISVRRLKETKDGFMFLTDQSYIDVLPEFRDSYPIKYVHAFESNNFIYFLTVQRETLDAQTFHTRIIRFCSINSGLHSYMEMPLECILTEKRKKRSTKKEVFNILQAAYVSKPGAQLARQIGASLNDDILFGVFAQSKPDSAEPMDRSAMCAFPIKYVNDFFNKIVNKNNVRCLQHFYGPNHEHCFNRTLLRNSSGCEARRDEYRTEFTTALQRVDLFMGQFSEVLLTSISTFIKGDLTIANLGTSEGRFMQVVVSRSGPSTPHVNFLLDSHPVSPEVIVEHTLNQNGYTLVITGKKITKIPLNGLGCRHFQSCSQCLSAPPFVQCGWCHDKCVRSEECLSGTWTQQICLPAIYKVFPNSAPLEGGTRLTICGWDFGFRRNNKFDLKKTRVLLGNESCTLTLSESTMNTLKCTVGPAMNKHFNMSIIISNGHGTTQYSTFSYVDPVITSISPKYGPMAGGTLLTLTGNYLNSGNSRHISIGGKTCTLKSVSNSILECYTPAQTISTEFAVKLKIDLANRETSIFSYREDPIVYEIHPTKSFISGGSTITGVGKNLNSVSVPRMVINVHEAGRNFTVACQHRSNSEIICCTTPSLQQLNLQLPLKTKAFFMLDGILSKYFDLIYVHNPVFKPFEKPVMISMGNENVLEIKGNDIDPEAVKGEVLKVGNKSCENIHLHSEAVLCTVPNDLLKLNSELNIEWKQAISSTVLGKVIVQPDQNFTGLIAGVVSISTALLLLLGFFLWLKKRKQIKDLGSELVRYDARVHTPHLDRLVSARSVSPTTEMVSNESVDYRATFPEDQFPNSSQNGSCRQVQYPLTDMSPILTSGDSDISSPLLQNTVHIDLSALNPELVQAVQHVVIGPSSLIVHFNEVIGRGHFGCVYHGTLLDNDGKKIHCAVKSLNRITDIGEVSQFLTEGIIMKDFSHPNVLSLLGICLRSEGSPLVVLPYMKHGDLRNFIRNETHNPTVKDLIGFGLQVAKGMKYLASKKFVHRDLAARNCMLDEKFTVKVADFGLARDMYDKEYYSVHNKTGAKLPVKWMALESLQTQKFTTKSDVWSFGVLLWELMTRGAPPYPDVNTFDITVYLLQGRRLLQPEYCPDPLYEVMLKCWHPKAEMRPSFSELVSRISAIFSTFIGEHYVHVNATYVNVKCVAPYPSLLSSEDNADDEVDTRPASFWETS

[7] = molecular target: T2, Dynamin-like GTPase OPA1, mitochondrial (Homo sapiens, UniProt O60313)
T2 sequence (O60313 whole entry): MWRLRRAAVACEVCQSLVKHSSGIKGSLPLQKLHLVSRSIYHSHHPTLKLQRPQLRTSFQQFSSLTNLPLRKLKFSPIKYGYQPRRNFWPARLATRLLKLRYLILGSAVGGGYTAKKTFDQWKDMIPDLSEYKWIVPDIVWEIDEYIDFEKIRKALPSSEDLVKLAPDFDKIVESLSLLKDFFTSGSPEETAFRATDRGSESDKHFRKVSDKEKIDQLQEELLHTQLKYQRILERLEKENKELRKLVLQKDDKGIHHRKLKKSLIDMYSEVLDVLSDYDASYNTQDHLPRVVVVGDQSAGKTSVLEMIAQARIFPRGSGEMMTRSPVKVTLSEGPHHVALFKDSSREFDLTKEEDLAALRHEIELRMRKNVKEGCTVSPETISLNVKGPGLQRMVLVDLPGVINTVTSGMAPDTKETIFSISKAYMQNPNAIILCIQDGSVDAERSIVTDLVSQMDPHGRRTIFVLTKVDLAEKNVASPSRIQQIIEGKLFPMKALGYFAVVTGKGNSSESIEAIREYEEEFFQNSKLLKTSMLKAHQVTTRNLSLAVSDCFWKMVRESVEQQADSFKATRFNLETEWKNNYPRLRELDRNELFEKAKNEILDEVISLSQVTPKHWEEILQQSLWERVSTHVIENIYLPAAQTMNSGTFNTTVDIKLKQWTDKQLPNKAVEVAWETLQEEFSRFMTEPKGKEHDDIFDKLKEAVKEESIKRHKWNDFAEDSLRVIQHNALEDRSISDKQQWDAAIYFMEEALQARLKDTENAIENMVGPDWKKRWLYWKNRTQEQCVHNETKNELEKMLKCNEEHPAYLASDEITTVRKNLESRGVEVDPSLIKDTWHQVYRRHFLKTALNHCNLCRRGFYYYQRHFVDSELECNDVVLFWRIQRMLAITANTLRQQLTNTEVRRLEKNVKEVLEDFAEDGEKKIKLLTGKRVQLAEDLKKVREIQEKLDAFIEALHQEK

[8] = molecular target: Ribosomal protein S6 kinase beta-1 (Homo sapiens, UniProt P23443)
Chain of Ribosomal protein S6 kinase beta-1 (P23443 whole entry): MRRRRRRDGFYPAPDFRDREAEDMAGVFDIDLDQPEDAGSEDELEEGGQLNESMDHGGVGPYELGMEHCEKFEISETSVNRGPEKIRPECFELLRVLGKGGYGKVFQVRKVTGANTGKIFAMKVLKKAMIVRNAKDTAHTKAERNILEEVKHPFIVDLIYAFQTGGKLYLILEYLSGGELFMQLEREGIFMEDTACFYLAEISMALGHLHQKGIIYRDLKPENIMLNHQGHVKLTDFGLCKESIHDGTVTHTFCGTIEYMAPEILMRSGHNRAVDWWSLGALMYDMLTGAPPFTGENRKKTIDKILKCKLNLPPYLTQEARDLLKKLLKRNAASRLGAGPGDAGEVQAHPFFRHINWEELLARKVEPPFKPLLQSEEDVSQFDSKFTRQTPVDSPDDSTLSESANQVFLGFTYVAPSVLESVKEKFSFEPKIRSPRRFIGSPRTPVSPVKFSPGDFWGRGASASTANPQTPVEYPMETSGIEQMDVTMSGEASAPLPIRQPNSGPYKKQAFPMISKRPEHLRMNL

DNA topoisomerase 2-beta = DNA topoisomerase 2-beta (Homo sapiens, UniProt Q02880)
Chain of DNA topoisomerase 2-beta (Q02880 whole entry): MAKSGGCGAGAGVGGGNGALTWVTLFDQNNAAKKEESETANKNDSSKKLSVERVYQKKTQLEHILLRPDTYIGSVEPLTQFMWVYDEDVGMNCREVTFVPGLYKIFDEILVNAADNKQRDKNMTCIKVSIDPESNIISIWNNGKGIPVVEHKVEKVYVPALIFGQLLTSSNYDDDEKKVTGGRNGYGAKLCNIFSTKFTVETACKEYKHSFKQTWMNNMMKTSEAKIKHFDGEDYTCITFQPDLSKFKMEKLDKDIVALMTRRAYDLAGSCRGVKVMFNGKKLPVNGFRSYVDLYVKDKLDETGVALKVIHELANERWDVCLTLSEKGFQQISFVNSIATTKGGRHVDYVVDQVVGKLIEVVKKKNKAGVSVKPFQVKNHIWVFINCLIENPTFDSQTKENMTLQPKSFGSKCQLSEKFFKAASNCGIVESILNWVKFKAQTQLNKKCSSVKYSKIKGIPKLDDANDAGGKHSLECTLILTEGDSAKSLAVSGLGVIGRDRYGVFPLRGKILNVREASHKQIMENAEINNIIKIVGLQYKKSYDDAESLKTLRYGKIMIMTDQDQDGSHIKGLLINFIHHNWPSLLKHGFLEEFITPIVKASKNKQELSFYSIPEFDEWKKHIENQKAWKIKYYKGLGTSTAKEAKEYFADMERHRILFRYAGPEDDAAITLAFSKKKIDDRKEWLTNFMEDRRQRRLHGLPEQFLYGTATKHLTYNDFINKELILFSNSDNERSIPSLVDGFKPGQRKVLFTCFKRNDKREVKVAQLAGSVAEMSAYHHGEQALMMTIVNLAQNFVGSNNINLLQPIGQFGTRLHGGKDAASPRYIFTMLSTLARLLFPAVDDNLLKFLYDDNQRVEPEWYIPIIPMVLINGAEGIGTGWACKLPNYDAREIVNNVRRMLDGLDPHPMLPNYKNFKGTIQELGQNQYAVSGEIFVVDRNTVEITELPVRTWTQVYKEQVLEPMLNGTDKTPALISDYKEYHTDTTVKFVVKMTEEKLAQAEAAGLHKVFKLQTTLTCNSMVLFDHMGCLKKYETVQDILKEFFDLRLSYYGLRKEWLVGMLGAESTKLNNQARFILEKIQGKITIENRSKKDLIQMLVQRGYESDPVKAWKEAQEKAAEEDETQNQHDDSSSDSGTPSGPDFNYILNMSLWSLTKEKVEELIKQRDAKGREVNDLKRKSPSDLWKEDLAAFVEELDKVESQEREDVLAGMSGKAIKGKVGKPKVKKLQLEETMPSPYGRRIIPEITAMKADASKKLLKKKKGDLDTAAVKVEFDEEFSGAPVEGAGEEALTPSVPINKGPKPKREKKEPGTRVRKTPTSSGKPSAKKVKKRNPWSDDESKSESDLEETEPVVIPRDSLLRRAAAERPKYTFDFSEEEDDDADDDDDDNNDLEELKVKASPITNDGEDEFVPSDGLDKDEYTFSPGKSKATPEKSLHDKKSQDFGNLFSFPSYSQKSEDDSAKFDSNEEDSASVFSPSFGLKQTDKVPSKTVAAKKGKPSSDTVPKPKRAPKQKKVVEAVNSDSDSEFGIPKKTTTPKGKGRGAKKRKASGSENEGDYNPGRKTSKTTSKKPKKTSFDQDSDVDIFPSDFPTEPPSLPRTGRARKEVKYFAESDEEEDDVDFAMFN

[9] = molecular target: Non-receptor tyrosine-protein kinase TYK2 (Homo sapiens, UniProt P29597)
[10] = molecular target: T3, Uncharacterized protein FLJ45252 (Homo sapiens, UniProt Q6ZSR9); conditions: read-out: Kd apparent; k-562, colo 205, sk-n-be(2) and mv-4-11
T3 sequence (Q6ZSR9 whole entry): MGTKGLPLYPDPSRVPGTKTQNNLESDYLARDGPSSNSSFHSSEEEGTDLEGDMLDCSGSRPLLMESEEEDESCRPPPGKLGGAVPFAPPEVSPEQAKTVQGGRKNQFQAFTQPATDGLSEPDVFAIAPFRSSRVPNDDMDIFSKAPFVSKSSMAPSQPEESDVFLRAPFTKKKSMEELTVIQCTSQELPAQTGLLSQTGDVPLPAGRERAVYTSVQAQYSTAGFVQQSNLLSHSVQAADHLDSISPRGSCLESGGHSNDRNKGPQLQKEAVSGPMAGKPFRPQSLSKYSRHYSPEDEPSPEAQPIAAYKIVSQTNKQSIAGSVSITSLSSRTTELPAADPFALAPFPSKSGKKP
Further: in the data inactive means no Kd found up to 30 µM.

Chain of Cyclin-dependent kinase 1 (P06493 whole entry, canonical isoform): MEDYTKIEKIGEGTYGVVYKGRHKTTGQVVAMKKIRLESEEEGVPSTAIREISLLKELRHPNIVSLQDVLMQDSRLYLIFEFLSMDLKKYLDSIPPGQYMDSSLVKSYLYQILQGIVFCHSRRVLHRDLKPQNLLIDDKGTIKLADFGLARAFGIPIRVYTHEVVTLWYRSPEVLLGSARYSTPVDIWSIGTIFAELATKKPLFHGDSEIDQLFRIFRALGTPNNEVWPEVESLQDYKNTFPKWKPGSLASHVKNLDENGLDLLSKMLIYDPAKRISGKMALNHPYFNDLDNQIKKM
Chain of Casein kinase I isoform alpha (P48729 whole entry, canonical isoform): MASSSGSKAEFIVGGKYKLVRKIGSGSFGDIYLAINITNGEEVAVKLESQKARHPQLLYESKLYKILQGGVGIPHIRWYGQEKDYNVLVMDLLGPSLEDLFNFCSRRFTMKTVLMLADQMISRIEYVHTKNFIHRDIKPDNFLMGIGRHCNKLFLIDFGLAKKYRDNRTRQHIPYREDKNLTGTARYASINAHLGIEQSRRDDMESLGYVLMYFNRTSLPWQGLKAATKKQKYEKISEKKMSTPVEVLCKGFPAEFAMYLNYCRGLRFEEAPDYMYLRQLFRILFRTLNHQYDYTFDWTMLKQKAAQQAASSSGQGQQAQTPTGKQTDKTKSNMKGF

Kd [1] | Kd [2] | Kd [3] | Kd [4] | Kd (Ephrin type-A receptor 7) | Kd [5] | Kd [6] | Kd [7] | Kd [8] | Kd (DNA topoisomerase 2-beta) | Kd [9] | Kd [10] | Compound
> 30 µM (inactive) | > 30 µM (inactive) | > 30 µM (inactive) | > 30 µM (inactive) | > 30 µM (inactive) | > 30 µM (inactive) | > 30 µM (inactive) | > 30 µM (inactive) | > 30 µM (inactive) | > 30 µM (inactive) | > 30 µM (inactive) | > 30 µM (inactive) | O=C(Cc1ccc(-c2ccc(OCCN3CCOCC3)cc2)cn1)NCc1ccccc1 [TIRBANIBULIN]
> 30 µM (inactive) | > 30 µM (inactive) | > 30 µM (inactive) | > 30 µM (inactive) | > 30 µM (inactive) | > 30 µM (inactive) | > 30 µM (inactive) | > 30 µM (inactive) | > 30 µM (inactive) | > 30 µM (inactive) | > 30 µM (inactive) | > 30 µM (inactive) | C[C@@H](NC(=O)c1ncnc(N)c1Cl)c1ncc(C(=O)Nc2cc(C(F)(F)F)c(Cl)cn2)s1 [TOVORAFENIB]
> 30 µM (inactive) | > 30 µM (inactive) | 1.68 µM (active) | > 30 µM (inactive) | > 30 µM (inactive) | 3.59 µM | > 30 µM (inactive) | > 30 µM (inactive) | > 30 µM (inactive) | > 30 µM (inactive) | > 30 µM (inactive) | > 30 µM (inactive) | Cn1ncc(Cl)c1-c1cc(C(=O)N[C@H](CN)Cc2ccc(F)c(F)c2)oc1Cl [UPROSERTIB]
> 30 µM (inactive) | > 30 µM (inactive) | > 30 µM (inactive) | > 30 µM (inactive) | > 30 µM (inactive) | > 30 µM (inactive) | > 30 µM (inactive) | > 30 µM (inactive) | > 30 µM (inactive) | > 30 µM (inactive) | > 30 µM (inactive) | > 30 µM (inactive) | CN1C/C=C/CCOc2cccc(c2)-c2ccnc(n2)Nc2cccc(c2)C1 [ZOTIRACICLIB]
